Measured values as given in article PMC7962536, “Isolation, Characterization, and Medicinal Potential of Polysaccharides of Morchella esculenta” (Molecules, 2021).
Converted amounts (≈) assume the structure as drawn.

Target: T1, tyrosinase enzyme from mushrooms
T1 construct: gene PPO1; native mushroom tyrosinase preparation
Experiment: spectrophotometric L-DOPA oxidation, […] nm
Assay type: biochemical
Conditions: L-DOPA as substrate, sodium phosphate buffer pH 6.8, 37 °C, 10 min preincubation; unreliable: extrapolated below the lowest listed concentration 12.5 µg/mL

IC50: 8.25 ± 0.36 µg/mL (≈ 58.1 µM)
Compound: O=c1cc(CO)occ1O [kojic acid]
